Where a name gives a salt, the structure may show the parent alone.
Experiments:
in vivo = test: in vivo; parameters: species or system AG129 mice; conditions: Crl:CD1(ICR), dose-adjusted PK data from the 25 mg/kg/day dose of the mouse 14-day study, read-out: Cmax at which relevant pharmacological activity is expected
Procedure: UV-4B was evaluated in four in vitro genetic toxicology assays (two Ames bacterial reverse mutation, mouse lymphoma assay, and chromosomal aberration in cultured human lymphocytes), and in an in vivo (mouse bone marrow micronucleus). UV-4B was not found to be mutagenic or clastogenic in any of these assays
2.2 Rationale for Dose Selection
This is a single-ascending dose study in which UV-4B will be administered for the first time in humans. The study will evaluate the safety, tolerability, and PK of increasing oral doses of […]
The results from this study will form the basis for the selection of doses of UV-4B to be used in future studies in healthy subjects and in patients diagnosed with uncomplicated DENV infection.
In the studies summarized below, the dose stated refers to the free-base used in vitro or administered during in vivo experiments.
The proposed doses for Cohorts 1 through 8 will range from 3 mg to 1000 mg of UV-4B (dose stated refers to the free base; see Table 2). […]
UV-4B, administered orally TID (intragastric via oral gavage) for a total number of 7 days (first dose administered 1 hour prior to infection) was effective in promoting survival of AG129 mice challenged with DENV. Of the doses evaluated (2.5, 5, 10, 20, and 40 mg/kg TID), the minimal effective dose (survival of 90% to 100%) was determined to be 10 mg/kg TID (UV4-LIA-0002). […]

[1] = 14-day GLP toxicology study in dogs (UV4-COV-0035); assay type: in vivo, dog
Procedure: Fourteen-day studies were conducted in mice and dogs. In dogs at 2 mg/kg/dose TID (6 mg/kg/day), there were mild decreases in platelets (PLT), increases in aspartate aminotransferase (AST) (up to 2.8 x baseline [BL]); and a decrease in thymus weight with lymphocyte depletion. Therefore, this dose exceeded the NOEL. At the no observed adverse event level (NOAEL) of 10 mg/kg/dose TID (30 mg/kg/day), there was an increase in the occurrence of poorly formed and liquid feces; decrease in PLT count and increase in activated partial thromboplastin time (aPTT) (2.2 x BL); increase in AST (up to 9.7 x BL) and alanine aminotransferase (ALT) (up to 2.9 x BL) with an inverted AST/ALT ratio; and a decrease in […]
lymphocyte depletion (no cellular debris was noted, however). The inverted AST/ALT ratio and lymphocyte depletion were reversible. Thymus weight decrease in females was reversible but thymus weight decreases in males were not. However, because the apparent […]
microscopic thymus findings, thymus weight differences at the recovery necropsy were considered not toxicologically important. […]
ng•h/mL, respectively. Daily exposure at NOAEL [calculated as 3 x AUC(0-8)] is estimated at 163,305 ng•h/mL. […]
Daily exposure [calculated as 3 x AUC(0-8)] is estimated at 32,820 ng•h/mL. […]

Compound | Cmax (in vivo) | AUC(0-t) ([1]; both sexes, dog, in vivo, 30 mg/kg/day, dogs, at NOAEL 30 mg/kg/day, read-out: Daily exposure [3 x AUC(0-8)]) | HED of the lowest dose tested in dogs ([1]; from 2 mg/kg TID)
COCCCCCCCCCN1C[C@H](O)[C@@H](O)[C@H](O)[C@H]1CO [UV-4, N-(9’-methoxynonyl)-1-deoxynojirimycin] | 4 to 8 µg/mL |  | 
COCCCCCCCCCN1C[C@H](O)[C@@H](O)[C@H](O)[C@H]1CO [UV-4B, N-(9’-methoxynonyl)-1-deoxynojirimycin hydrochloride] |  | 32.8 µg·h/mL | 67 mg TID

From publication PMC9387934, “Randomized single oral dose phase 1 study of safety, tolerability, and pharmacokinetics of Iminosugar UV-4 Hydrochloride (UV-4B) in healthy subjects” (PLoS Neglected Tropical Diseases, 2022)
